Assay results as given in patent US20230277562A1, “USE OF C[…] THE TREATMENT OF SEIZURES ASSOCIATED WITH RARE […] SYNDROMES RELATED TO GENETIC ABNORMALITIES” (GW Research Limited, priority 2020, published 2023).
“Also recorded” adds a separate entry of the source.

System: seizures associated with congenital disorder of glycosylation 1P (tonic and myoclonic seizures)
Assay: Open label, expanded-access program of botanically derived purified CBD: seizure frequency in a patient with congenital disorder of glycosylation 1P
Assay type: in vivo, human
Conditions: for Seizure frequency, Tonic: baseline 448.0; for Seizure frequency, Myoclonic: baseline 700.0
Procedure: The subject was required to be on one or more AEDs at stable doses for a minimum of two weeks prior to baseline and to have stable vagus nerve stimulation (VNS) settings and ketogenic diet ratios for a minimum of four weeks prior to baseline.
Dose was then increased weekly by 5 mg/kg/day to a goal of 25 mg/kg/day.
A maximum dose of 50 mg/kg/day could be utilised for the patient if they were tolerating the medication but had not achieved seizure control; the patient had further weekly titration by 5 mg/kg/day.
Modifications were made to concomitant AEDs as per clinical indication.
Seizure frequency, intensity, and duration were recorded by caregivers in a diary during a baseline period of at least 28 days. Changes in seizure frequency relative to baseline were calculated after at least 2 weeks and at defined timepoints of treatment.
Patients may be defined as responders if they had more than 50% reduction in seizure frequency compared to baseline. The percent change in seizure frequency was calculated as follows: […]
The percent change of seizure frequency may be calculated for any time interval where seizure number has been recorded. For the purpose of this example the percent change of seizure frequency for the end of the treatment period was calculated as follows: […]

[1] = Patient 1, 2 weeks, dose CBD 9.1 mg/kg/day
[2] = Patient 1, 4 weeks, dose CBD 18.2 mg/kg/day
[3] = Patient 1, 8 weeks, dose CBD 26.3 mg/kg/day
[4] = Patient 1, 12 weeks, dose CBD 19.0 mg/kg/day
[5] = Patient 1, 16 weeks, dose CBD 13.3 mg/kg/day
[6] = Patient 1, treated for 132 weeks, relative to baseline

C=C(C)[C@@H]1CCC(C)=C[C@H]1c1c(O)cc(CCCCC)cc1O [CBD, cannabidiol]
Seizure frequency, Tonic [1]: 328.0 | Seizure frequency, Myoclonic [1]: 384.0 | Seizure frequency, Tonic [2]: 231.2 | Seizure frequency, Myoclonic [2]: 424.8 | Seizure frequency, Tonic [3]: 52.0 | Seizure frequency, Myoclonic [3]: 608.0 | Seizure frequency, Tonic [4]: 22.8 | Seizure frequency, Myoclonic [4]: 986.0 | Seizure frequency, Tonic [5]: 20.0 | Seizure frequency, Myoclonic [5]: 1251.2 | reduction in myoclonic seizures over the treatment period [6]: 72.1% | reduction in tonic seizures over the treatment period [6]: 57.2% | effect on frequency/number of tonic and myoclonic seizures (in words) (patient with congenital disorder of glycosylation 1P): effective in reducing the frequency of tonic and myoclonic seizures; also recorded: significantly reduce the number of seizures; also recorded: significant reduction in tonic and myoclonic seizures
